Publication PMC8540349, “GOBP1 from the Variegated Cutworm Peridroma saucia (Hübner) (Lepidoptera: Noctuidae) Displays High Binding Affinities to the Behavioral Attractant (Z)-3-Hexenyl acetate” (Insects, 2021)
“Also recorded” adds a separate entry of the source.

Legend:
[1] = target: recombinant PsauGOBP1; assay: Fluorescence competitive-binding assay with 1-NPN as probe; set-up: species or system Peridroma saucia; conditions: mean ± SE; for IC50: 1-NPN displacement, Tris-HCl pH 7.4, 25 °C, read-out: IC50 (concentration of ligand halving the initial fluorescence value); for IC50 / Fluorescence (%) at Maximum Concentration: three experiments; for Fluorescence (%) at Maximum Concentration: remaining 1-NPN fluorescence; for Kd: calculated from IC50 with KD = [IC50]/1 + [1-NPN]/K1-NPN, read-out: KD (calculated dissociation constant)
Experimental: (§1) Emission fluorescence spectra were recorded on a Hitachi F-4500 at 25 °C, with a 1 cm light path quartz cuvette and 5 nm slits for both excitation and emission. The protein was dissolved in 50 mM Tris-HCl buffer, pH 7.4, and ligands were added as 1 mM methanol solutions. To measure the affinity of the fluorescent ligand N-phenyl-1-naphthylamine (1-NPN) to PsauGOBP1, a […] solution of the protein in 50 mM Tris-HCl, pH 7.4, was titrated with aliquots of 1 mM ligand in methanol to a final concentration of 16 µM. The probe was excited at 337 nm, and emission spectra were recorded between 380 and 450 nm. To analyze the binding affinity of other ligands to PsauGOBP1, a panel of 34 compounds including moth sex pheromones and host plant volatiles were used in the competitive-binding assay. A solution of the protein and 1-NPN, both at the concentration of […], was titrated with 1 mM methanol solutions of each competitor at a concentration of 12 (sex pheromones) or 16 µM (host plant volatiles).
The dissociation constant for 1-NPN and the stoichiometry of binding were obtained by processing the data with GraphPad Prism 6. Dissociation constants of the competitors were calculated from the corresponding IC50 values (concentrations of ligands that reduced the initial fluorescence value of 1-NPN by 50%), using the following equation: KD = [IC50]/1 + [1-NPN]/K1-NPN, where [1-NPN] is the free concentration of 1-NPN, and K1-NPN is the dissociation constant of the protein/1-NPN complex.

[2] = tested on: P. saucia antennae; assay: Electroantennogram (EAG) recording; set-up: species or system Peridroma saucia; conditions: dose 100 µg, two- to three-day-old males and females, versus paraffin oil control, n = 20
Experimental: Individual synthetic nonanal, citral, farnesol, benzaldehyde, (Z)-3-hexenyl acetate, and (Z)-3-hexen-1-ol was diluted with paraffin oil to make each solution of 10 μg/μL. Each solution was added onto a filter paper (0.2 × 1 cm), and the final loading capacity doses of each solution were 100 μg. A 10 μL volume of paraffin oil was used as the control. Two- to three-day-old male and female P. saucia were used to obtain EAG recordings for the six volatiles. As described by Sun et al. with modification, the antennae were cut from the head and used for electro-signal recordings. After a few segments of the tip were cut off, the antenna was glued to the antenna holder (using conductive gel, Spectra 360, Parker Lab, NJ, USA), and the antenna holder was inserted into the EAG probe. The EAG signal was first amplified with a DC/AC preamplifier (Syntech UN-06), and was further processed with Autospike software (Syntech, Hilversum, the Netherlands).
The EAG data were analyzed using GraphPad Prism 6. The level of significance was set at p < 0.05. Unpaired Student’s t-tests were used to compare the EAG responses of male vs. female P. saucia. For comparison of responses to the six volatiles, the EAG data were first subjected to a one-way ANOVA; this was done separately for males and females. If the ANOVA was significant, means were compared with Tukey’s multiple comparison test.

[3] = target: recombinant PsauGOBP1; assay: Affinity of fluorescent probe 1-NPN to PsauGOBP1 (direct titration); set-up: species or system Peridroma saucia; conditions: direct titration 2–16 µM 1-NPN, excitation 337 nm; single binding site; means of three replicates; read-out: dissociation constant of 1-NPN
Experimental: as §1
The dissociation constant for 1-NPN and the stoichiometry of binding were obtained by processing the data with GraphPad Prism 6. […]

[4] = tested on: adult P. saucia; assay: Y-tube olfactometer behavioral bioassay; assay type: in vivo, Peridroma saucia
Experimental: A Y-tube olfactometer was used to assess the behavioral responses of male and female P. saucia to (Z)-3-hexenyl acetate as described by Yan and Wang with modifications. In brief, the system consisted of a central tube (20 cm long, 6 cm diameter) and two lateral arms (35 cm long, 6 cm diameter). (Z)-3-hexenyl acetate was dissolved in paraffin oil to obtain 10 µg/µL solutions. Filter paper (1 × 2 cm) with 10 µL of sample or 10 µL of paraffin oil was placed in a 250 mL flask. During the test, the room temperature was kept at 24 ± 2 °C with 70% ± 5% humidity and 0.6 lux of red light. […] Moths that moved more than half way along one of the lateral arms and remained for at least 5 s were recorded as having made a choice for the odor offered through that arm. After five individuals were tested, the olfactometer was turned and the flasks were switched in order to avoid positional effects. Tested compounds and paraffin oil were renewed every 5–10 min. The olfactometer and the flask were cleaned with water, ethanol, and acetone at the end of each day.
Chi-squared analyses were performed to determine whether the numbers of P. saucia that made a choice differed between the two odor sources (a 50:50 probability was set for the percentage of moths selecting the control and the test sides. The moths that made no choice were not included in the statistical analysis).

[5] = sex pheromones, maximum concentration 12 (µM)
[6] = host plant volatiles, maximum concentration 16 (µM)

SMILES | IC50 [1] | Fluorescence (%) at Maximum Concentration [1, 6] | other results
CCCC/C=C\CCCCCCCCCC=O [Z11-16: Ald] | > 20 µM | – | Fluorescence (%) at Maximum Concentration [1, 5]: 89 ± 1%
C=C1CC/C=C(\C)CC[C@@H]2[C@@H]1CC2(C)C [(E)-caryophyllene] | > 20 µM | 75 ± 1% | –
O=Cc1ccccc1 [Benzaldehyde] | 19.3 ± 1.1 µM | 62 ± 2% | Kd [1]: 9.4 ± 0.5 µM; EAG response of male and female antennae [2]: strong responses; also recorded: relatively strong
CC/C=C\CC1C(=O)CCC1CC(=O)OC (stereo not drawn) [Methyl jasmonate] | > 20 µM | 80 ± 5% | –
C=C1CCC2CC1C2(C)C (stereo not drawn) [β-pinene] | > 20 µM | 100 ± 2% | –
CCCCCCCC=O [Octanal] | > 20 µM | 61 ± 6% | –
CCCCCCCCCCCCO [Dodecanol] | > 20 µM | 75 ± 8% | –
C=CC(C)(O)CCC=C(C)C (stereo not drawn) [Linalool] | > 20 µM | 79 ± 2% | –
CCCCCCCCCC=O [Decanal] | > 20 µM | 85 ± 2% | –
CCCCCCCO [Heptanol] | > 20 µM | 65 ± 4% | –
C=C(C)[C@H]1CC=C(C)CC1 [D-limonene] | > 20 µM | 100 ± 5% | –
CC/C=C\CCCCCCCCOC(C)=O [Z9-12: Ac] | > 20 µM | – | Fluorescence (%) at Maximum Concentration [1, 5]: 72 ± 2%
C=CC(=C)CCC=C(C)C [β-myrcene] | > 20 µM | 94 ± 1% | –
CCCC/C=C\CCCCCCCCCCOC(C)=O [Z11-16: Ac] | > 20 µM | – | Fluorescence (%) at Maximum Concentration [1, 5]: 70 ± 2%
C=CC(C)=CCC=C(C)C [Ocimene] | > 20 µM | 74 ± 7% | –
CC(C)=CCC/C(C)=C/CC/C(C)=C/CO [Farnesol] | 13.1 ± 1.2 µM | 47 ± 4% | Kd [1]: 6.4 ± 0.6 µM; EAG response of male and female antennae [2]: weak EAG responses and weak
c1ccc2[nH]ccc2c1 [Indole] | > 20 µM | 70 ± 9% | –
CC(C)=CCCC(C)=CC=O (mixture of isomers) [Citral] | 11.5 ± 1 µM | 40 ± 3% | Kd [1]: 5.6 ± 0.4 µM; EAG response of male and female antennae [2]: weak EAG responses and weak

SMILES | IC50 [1] | Fluorescence (%) at Maximum Concentration [1, 6] | other results
CCCC/C=C\CCCCCCCCCCO [Z11-16: OH] | > 20 µM | – | Fluorescence (%) at Maximum Concentration [1, 5]: 70 ± 5%
CC(=O)OCCc1ccccc1 [Phenylethyl acetate] | > 20 µM | 64 ± 2% | –
CCC/C=C/C=O [(E)-2-hexenal] | > 20 µM | 64 ± 4% | –
CCCC/C=C\CCCCCCCCOC(C)=O [Z9-14: Ac] | > 20 µM | – | Fluorescence (%) at Maximum Concentration [1, 5]: 78 ± 2%
CC/C=C\C[C@H]1C(=O)CC[C@@H]1CC(=O)O [Jasmonic acid] | > 20 µM | 68 ± 3% | –
CCCC/C=C\CCCCCCOC(C)=O [Z7-12: Ac] | > 20 µM | – | Fluorescence (%) at Maximum Concentration [1, 5]: 74 ± 4%
CC/C=C\CCO [(Z)-3-hexen-1-ol] | 17.4 ± 1.5 µM | 58 ± 3% | Kd [1]: 8.5 ± 0.6 µM; EAG response of male and female antennae [2]: strong responses; also recorded: relatively strong
CC/C=C\CC1=C(C)CCC1=O [(Z)-jasmone] | > 20 µM | 83 ± 5% | –
c1ccc(Nc2cccc3ccccc23)cc1 [1-NPN, N-phenyl-1-naphthylamine] | – | – | Kd [3]: 1.9 µM
CCC/C=C/COC(C)=O [(E)-2-hexenyl acetate] | > 20 µM | 77 ± 7% | –
COC(=O)c1ccccc1O [Methyl salicylate] | > 20 µM | 73 ± 3% | –
CCCCCC/C=C\CCCCCCCCO [Z9-16: OH] | > 20 µM | – | Fluorescence (%) at Maximum Concentration [1, 5]: 76 ± 1%
CCCCCCCCC=O [Nonanal] | 13.9 ± 0.6 µM | 50 ± 2% | Kd [1]: 6.8 ± 0.3 µM; EAG response of male and female antennae [2]: weak EAG responses and weak
CC/C=C\CCOC(C)=O [(Z)-3-hexenyl acetate] | 8.2 ± 0.2 µM | 19 ± 2% | Kd [1]: 4 ± 0.1 µM; EAG response of male and female antennae [2]: strongest responses; also recorded: strongest EAG response; also recorded: strong responses; percentage of females showing chemotaxis to the compound ([4]; females, 10 µL of 10 µg/µL in paraffin oil versus paraffin oil, Y-tube): 68%; behavioral response (attraction) of both sexes ([4]; males and females, choice versus paraffin oil, chi-squared test): attractive; also recorded: attracted; also recorded: significant attraction; percentage of males showing chemotaxis to the compound ([4]; males, 10 µL of 10 µg/µL in paraffin oil versus paraffin oil, Y-tube): 64%
CCCCCC/C=C\CCCCCCCC=O [Z9-16: Ald] | > 20 µM | – | Fluorescence (%) at Maximum Concentration [1, 5]: 82 ± 3%
CCC/C=C/CO [(E)-2-hexen-1-ol] | > 20 µM | 67 ± 2% | –
C=CC(=C)CC/C=C(\C)CCC=C(C)C [(E)-β-farnesene] | > 20 µM | 87 ± 4% | –
